For series [1], the system named is HUVEC cells. Briefly: Lipid peroxidation: malondialdehyde (MDA) in HUVEC. The format is cell-based, human. To be noted: 30 mM glucose, with or without 5 mM ERT. As for the experimental part: The prepared cells were seeded in 6 well plates and T75 flasks and grown until 80% confluence. The medium was removed, and the cells were washed with Hank's Balanced Salt Solution (HBSS). […] The vehicle solution is the solvent for the test compounds, in this case being the medium without supplements. […] The cells described above were also incubated for 24 hours with a 7 mM, normal glucose (NG) solution or in some instances, with a 15 mM, intermediary glucose (IG) solution. See, for example, FIG. 6. Subsequently, the cells were incubated for 24 hours. The same protocol was used for incubation with Nε-(carboxymethyl)lysine (CML, final concentration 1 micromolar) and 1,3-morpholino sidnonimine (SIN-1, final concentration 0.5 mM).

In series [2] the test system is Mouse intestine (entero-endocrine) STC-1 cells. Conditions: STC-1 cells, 10% w/v, 2 hours at 37° C. As for the experimental part:
Appropriate blanks, positive controls, and standards were also included.
The lactate dehydrogenase (LDH) leakage from cells was analyzed in the supernatants as a marker for cytotoxic cell death.

The conditions of series [3]: in vitro; cited from earlier work.
For series [4] the following is noted: in vivo, po; cited from earlier work.

The source of these data is patent US20150104868A1, “Methods of Maintaining and Improving Biological Cell Function and Activity” (GARGILL INCORPORATED, priority 2012, published 2015).

`OC[C@@H](O)[C@@H](O)CO` [ERT, meso-1,2,3,4-tetrahydroxybutane]: the “malondialdehyde (MDA), end product of lipid peroxidation” value in series [1] was “Neither the exposure of the HUVEC cells to 5 mM ERT and 30 mM glucose (HGERT) nor to HG aloneaffected”. The “cell death (leakage of lactate dehydrogenase)” value in series [2] is “cells could tolerate higher concentrations of ERT than glucose and other sugars tested”. Moreover, in series [3], the hydroxyl radical scavenging entry is reported as “effective in scavenging hydroxyl radicals” and the “superoxide or peroxynitrite scavenging activity” value was “does not possess any superoxide or peroxynitrite scavenging activity”. Also, in series [4], the excretion entry was “excreted unchanged in the urine” and the metabolism result is “not metabolized”.
